Data published in patent publication US20180327367A1, “MACROCYCLIC BROAD SPECTRUM ANTIBIOTICS” (priority 2015, published 2018).
Converted amounts (≈) assume the structure as drawn. Read-outs that look alike come from different tables or passages of the source.

What was measured:
[1] = system: Escherichia coli MC4100 harboring the IMP4213 (E. coli IMP); assay: microbe, parasite or virus in culture; format: cell-based; conditions: Escherichia coli, 22 h, read-out: MIC (μg/mL) E. coli IMP, E. coli MC4100 IMP4213, increased outer-membrane permeability; 35° C., 22 hours
Method in brief: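 Colonies grown 20 hours at 35° C were suspended in cation-adjusted Mueller Hinton Broth with 0.002% Tween-80. Cells were then added to 2-fold compound dilutions starting at 4 or 0.5 μg/mL, at OD600 0.0005.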

[2] = target: T1, SpsB (Staphylococcus aureus signal peptidase) (Staphylococcus aureus, UniProt P0A070); assay: cell-based; format: biochemical; conditions: SpsB IC50, whole-cell S. aureus (USA300 background, overexpressing SpsB) as SpsB source; fluorogenic peptide substrate, kinetic read 30 min
T1 construct: This assay uses a suspension of Staphylococcus aureus cells as a source of SpsB instead of recombinant SpsB protein; endogenous in cells; host or cells: S. aureus, USA300 background, overexpressing SpsB (whole-cell suspension from frozen pellets)
T1 sequence (P0A070 whole entry): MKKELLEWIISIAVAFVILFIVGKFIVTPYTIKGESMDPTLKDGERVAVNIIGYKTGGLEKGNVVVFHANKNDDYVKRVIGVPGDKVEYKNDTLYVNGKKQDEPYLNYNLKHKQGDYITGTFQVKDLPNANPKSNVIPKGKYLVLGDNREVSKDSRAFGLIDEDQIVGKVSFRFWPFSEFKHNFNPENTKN
Method in brief: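 Whole S. aureus cells (USA300, overexpressing SpsB) in PBS with MgCl2, CaCl2 and 0.1% Tween-80 served as enzyme source, mixed with 20 μM stock of (Dabcyl)βAla-KPAKAAE(Edans) substrate before use. Fluorescence (ex 340/em 490 nm) read kinetically over 30 min. IC50 from reaction rate versus 11-point inhibitor concentration.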

[3] = system: Methicillin Resistant Staphylococcus aureus strain USA 300, NRS384; assay: Minimum inhibitory concentration, broth micro-dilution (CLSI), S. aureus; format: cell-based; conditions: Staphylococcus aureus, MRSA / NRS 384 / USA300, 22 h, 35° C., 22 hours
Method in brief: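 Ten-point 2-fold series began at 4 μg/mL in protocol 2 and 0.5 μg/mL in protocol 3, in cation-adjusted MHB plus 0.002% Tween-80. Bacteria added to OD600 0.0005 final and incubated at 35° C for 22 hours per CLSI microdilution.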

[4] = system: Escherichia coli ATCC 25922; assay: Minimum inhibitory concentration, broth micro-dilution (CLSI), E. coli; format: cell-based; conditions: Escherichia coli, ATCC25922, 22 h, 35° C., 22 hours
[5] = MRSA USA 300 NRS384, read-out: MIC (μg/mL) S. aureus
[6] = E. coli ATCC 25922, read-out: MIC (μg/mL) E. coli
[7] = read-out: MIC (μg/mL) S. aureus, MRSA USA 300 NRS384
[8] = read-out: MIC (μg/mL) E. coli, E. coli ATCC 25922

SMILES	MIC [1] [µg/mL]	IC50 [2] [pM]	MIC [3, 5] [µg/mL]	MIC [4, 6] [µg/mL]	MIC [3, 7] [µg/mL]	MIC [4, 8] [µg/mL]
CCCCCCCOc1ccc(C(=O)N[C@@H](CCCN)C(=O)N(C)[C@@H]2C(=O)N[C@@H](C)C(=O)N[C@H](C(=O)NCC#N)Cc3ccc(OCCN)c(c3)-c3cc2ccc3OCCN)c(C)c1 [Compound 281]	0.0078 (≈ 0.00882 µM)	750	0.023 (≈ 0.026 µM)	0.25 (≈ 0.283 µM)	–	–
CCCCCCCCc1ccc(C(=O)N[C@@H](CCNCC(=O)O)C(=O)N(C)[C@@H]2C(=O)N[C@@H](C)C(=O)N[C@H](C(=O)NCC#N)Cc3ccc(OCCN)c(c3)-c3cc2ccc3OCCN)c(C)c1 [Compound 263]	0.023 (≈ 0.0248 µM)	1100	0.13 (≈ 0.14 µM)	2 (≈ 2.16 µM)	–	–
CCCCCCCCCCN[C@@H](CO)C(=O)N(C)[C@@H]1C(=O)N[C@@H](C)C(=O)N[C@H](C(=O)NCC#N)Cc2ccc(OCCN)c(c2)-c2cc1ccc2OCCN [Compound 400]	2 (≈ 2.61 µM)	5000	–	–	0.25 (≈ 0.327 µM)	> 64
CCCCCCCCCCNCCC(=O)N[C@@H](CCCCN)C(=O)N(C)[C@@H]1C(=O)N[C@@H](C)C(=O)N[C@H](C(=O)NCC#N)Cc2ccc(OCCN)c(c2)-c2cc1ccc2OCCN [Compound 101]	1.7 (≈ 1.94 µM)	720	0.094 (≈ 0.107 µM)	48 (≈ 54.7 µM)	–	–
CCCCc1ccc(Oc2ncc(C(=O)N[C@@H](CCN)C(=O)N(C)[C@@H]3C(=O)N[C@@H](C)C(=O)N[C@H](C(=O)NCC#N)Cc4ccc(OCCN)c(c4)-c4cc3ccc4OCCN)c(C)n2)cc1 [Compound 306]	0.0078 (≈ 0.00861 µM)	690	0.031 (≈ 0.0342 µM)	1 (≈ 1.1 µM)	–	–
Cc1cc(OCCC(C)C)ccc1C(=O)N[C@@H](CCN)C(=O)N(C)[C@@H]1C(=O)N[C@@H](C)C(=O)N[C@H](C(=O)NCC#N)Cc2ccc(OCCN)c(c2)-c2cc1ccc2OCCN [Compound 274]	0.02 (≈ 0.0238 µM)	790	0.13 (≈ 0.154 µM)	1.3 (≈ 1.54 µM)	–	–
CCCCCCCCCC(=O)N[C@@H](CCN)C(=O)N(C)[C@@H]1C(=O)N[C@@H](C)C(=O)N[C@H](C(=O)NCC#N)Cc2ccc(OCCN)c(c2)-c2cc1ccc2OCCN [Compound 105]	0.031 (≈ 0.0391 µM)	820	0.13 (≈ 0.164 µM)	8 (≈ 10.1 µM)	–	–
CCCCCCCCCCCCCC(=O)N[C@@H](CCCCN)C(=O)N(C)[C@@H]1C(=O)N[C@@H](C)C(=O)N[C@H](C(=O)NCC#N)Cc2ccc(OCCN)c(c2)-c2cc1ccc2OCCN [Compound 334]	< 0.063	1300	< 0.063	0.5 (≈ 0.571 µM)	–	–
CCCCCCCc1ccc(C(=O)N[C@@H](CCO)C(=O)N(C)[C@@H]2C(=O)N[C@@H](C)C(=O)N[C@H](C(=O)NCC#N)Cc3ccc(OCCN)c(c3)-c3cc2ccc3OCCN)c(C)c1 [Compound 260]	0.031 (≈ 0.0363 µM)	1100	0.094 (≈ 0.11 µM)	2 (≈ 2.34 µM)	–	–
CCCCCCCCCCCCCC(=O)N[C@@H](CCCCN)C(=O)N(C)[C@@H]1C(=O)N[C@@H](C)C(=O)N[C@H](C(=O)N[C@@H](C)C#N)Cc2ccc(OCCN)c(c2)-c2cc1ccc2OCCO [Compound 333]	< 0.063	800	< 0.063	1 (≈ 1.12 µM)	–	–
Cc1cc(-c2ccccc2)ccc1C(=O)N[C@@H](CCN)C(=O)N(C)[C@@H]1C(=O)N[C@@H](C)C(=O)N[C@H](C(=O)NCC#N)Cc2ccc(OCCN)c(c2)-c2cc1ccc2OCCN [Compound 149]	0.023 (≈ 0.0276 µM)	800	0.19 (≈ 0.228 µM)	3 (≈ 3.61 µM)	–	–
CCCCCCCCCC(=O)N[C@@H](CO)C(=O)N(C)[C@@H]1C(=O)N[C@@H](C)C(=O)N[C@H](C(=O)NCC#N)Cc2ccc(OCCN)c(c2)-c2cc1ccc2OCCN [Compound 232]	0.25 (≈ 0.321 µM)	2400	1.5 (≈ 1.93 µM)	> 64	–	–
CCCc1ccc(-c2nc(C)c(C(=O)N[C@@H](CCN)C(=O)N(C)[C@@H]3C(=O)N[C@@H](C)C(=O)N[C@H](C(=O)NCC#N)Cc4ccc(OCCN)c(c4)-c4cc3ccc4OCCN)c(C)n2)cc1 [Compound 165]	0.0039 (≈ 0.00438 µM)	610	0.047 (≈ 0.0528 µM)	0.19 (≈ 0.213 µM)	–	–
C[C@@H]1NC(=O)[C@@H](N(C)C(=O)[C@H](CCN)NC(=O)c2ccc(CCc3ccccc3)cc2)c2ccc(OCCN)c(c2)-c2cc(ccc2OCCN)C[C@@H](C(=O)NCC#N)NC1=O [Compound 121]	0.023 (≈ 0.0272 µM)	1200	–	–	0.13 (≈ 0.154 µM)	2 (≈ 2.36 µM)
